Drawing on the METLIN SMRT retention time set (Domingo-Almenara et al. 2019), this text covers RP-LC retention time for 78 compounds.

The series in a line: gradient 5% acetonitrile 3 min, to 50% in 2 min, to 85% in 15 min, held 3 min, 100 µL/min. As to conditions: column: Zorbax Extend-C18 2.1 x 50 mm; eluents: water / acetonitrile, 0.1% formic acid. The procedure, abridged:
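Standards, all pure, were combined into mixtures of ~100 molecules and run at 100 μL/min on a Zorbax Extend-C18 column (2.1 × 50 mm, 1.8 μm) with water and acetonitrile, each containing 0.1% formic acid. A coupled quadrupole time-of-flight mass spectrometer operated in positive and negative ionization mode. Retention time values come from computationally picked adduct peaks, each inspected manually.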
For `CCCc1sc(NCc2cccc(OC)c2O)nc1-c1cc(C)ccc1C`, the RP-LC retention time is 911 s.

`Cc1ccc(N2C(=O)CN(S(C)(=O)=O)CC2(C)C(=O)NC2CCCCCC2)cc1F` (stereo not drawn) yielded an RP-LC retention time of 905 s.

As for `Cc1ccc(CN2CC(c3ncc(C)n3Cc3ccccc3)C2)s1`, the RP-LC retention time is 587 s.

Consider `O=C(NCc1ccc(Br)cc1)c1cn2ccccc2n1`, for which the RP-LC retention time is 726 s.

In turn, `CC(C)NC(=O)Cn1cnc2c(sc3nc(-c4ccccc4)ccc32)c1=O` returned an RP-LC retention time of 817 s.

In the case of `COC(=O)CNC(=O)NC(C(=O)N1CCc2ccccc21)c1ccccc1` (stereo not drawn), the RP-LC retention time is 792 s.

`CCn1cc(C)c(C(=O)O)c1CC(=O)N1CCC(c2ccccc2)C1` (stereo not drawn) yielded an RP-LC retention time of 802 s.

In the case of `Cc1oc(-c2ccc(NC(=O)c3ccc(Br)cc3)cc2)nc1Cn1cccn1`, the RP-LC retention time was found to be 948 s.

With `CCOc1cc(C(=O)Nc2cc(-c3cn4cccnc4n3)ccc2C)cc(OCC)c1OCC`, the RP-LC retention time was found to be 780 s.

Turning to `COc1ccc(N2CCN(c3cc(SCC(=O)Nc4ccc(C)cc4Cl)ncn3)CC2)cc1`, the RP-LC retention time amounted to 1200 s.

On to `Cc1ccc(CN2C(=O)CC(N3CCCCC3)C2=O)cc1` (stereo not drawn), for which the RP-LC retention time was found to be 580 s.

Regarding `Cn1c(C(=O)NCc2ccccc2)cc2ccncc21`, the RP-LC retention time was found to be 604 s.

`COc1cccc(-c2cc(=O)n3c4ccccc4n(CC(=O)NCc4ccco4)c3n2)c1` gave an RP-LC retention time of 864 s.

`COCCn1c(CCCC(=O)NCc2ccc3c(c2)OCO3)nc2cccnc21`: the RP-LC retention time worked out at 632 s.

`CCN(CC)c1ccc(-c2nc3ncccn3c2NCc2ccccc2)cc1` returned an RP-LC retention time of 712 s.

For `COc1cc([C@@H]2c3cc4c(cc3[C@H](O)[C@@H](CO)[C@@H]2C(=O)NCCCN(C)C)OCO4)cc(OC)c1OC`, the RP-LC retention time stood at 596 s.

On to `Cc1cc(Cl)ccc1OCC(=O)Nc1nc(-c2ccc(Br)cc2)cs1`, for which the RP-LC retention time is 1310 s.

As for `CCOc1ccccc1NC(=O)C1(C)Oc2cccnc2NC1=O` (stereo not drawn), the RP-LC retention time was determined as 776 s.

The compound `O=C(NCc1ccco1)C(=O)NCC1OCCN1C(=O)c1ccc2c(c1)OCO2` (stereo not drawn) registered an RP-LC retention time of 653 s.

On to `Cc1ccn2c(=O)c(NC(=O)c3ccco3)c(C)nc2c1`, for which the RP-LC retention time was 544 s.

In turn, `Cc1ccc(NC(=O)c2nnc(CCCC(=O)NCCc3c[nH]c4ccc(C)cc34)s2)cc1` yielded an RP-LC retention time of 946 s.

With `CC(=O)Nc1ccc(C(=O)N2CC(C)CC(C)C2)o1` (stereo not drawn), the RP-LC retention time worked out at 739 s.

For the compound `O=C(NCCc1csc(C2CCCN(C(=O)C3CCC3)C2)n1)C1CCC1` (stereo not drawn), the RP-LC retention time turned out to be 719 s.

For `O=C(Nc1ccc2c(c1)OCO2)N1CCC(N2CCN(Cc3ccccc3)C(=O)C2=O)CC1`, the RP-LC retention time was found to be 706 s.

For the compound `COc1ccccc1C(=O)N1CCC2(CC1)OCCN2S(=O)(=O)c1ccc(F)c(C)c1`, the RP-LC retention time is 835 s.

The compound `CCc1ccc(C(=O)N2CCC3(C2)C(=O)Nc2ccccc23)cc1` (stereo not drawn) registered an RP-LC retention time of 769 s.

`Cc1ccc(Cn2c(=O)c(SCC(=O)NCC3CCCO3)nc3ccccc32)cc1` (stereo not drawn) registered an RP-LC retention time of 889 s.

Consider `O=C(CSc1ccc(N2CCCC(C(=O)NC3CC3)C2)nn1)Nc1ccc(Br)cc1` (stereo not drawn), for which the RP-LC retention time was determined as 691 s.

The compound `Cc1ccc(CNC(=O)CCNc2c(-c3ccc(F)cc3)nc3cnccn23)o1` returned an RP-LC retention time of 694 s.

Regarding `CCOC(=O)C1CCN(C(=O)COc2ccc(NC(=O)C3CC3)cn2)CC1`, the RP-LC retention time was found to be 682 s.

As to `CCc1ccc(NC(=O)Cn2cnc3onc(C)c3c2=O)cc1`, the RP-LC retention time worked out at 843 s.

`CCOC(=O)c1ccc(NS(=O)(=O)c2c[nH]c3ncccc23)cc1` registered an RP-LC retention time of 734 s.

The compound `COc1nc2ccccc2nc1N1CCCC(C(=O)NCc2ccco2)C1` (stereo not drawn) displayed an RP-LC retention time of 951 s.

`O=C(COc1ccccc1-c1nnc(-c2ccccc2)o1)Nc1ccc2c(c1)OCO2` registered an RP-LC retention time of 1100 s.

`CCOc1ccc(-c2noc(Cn3c(=O)n(-c4ccccc4F)c(=O)c4sccc43)n2)cc1OC` gave an RP-LC retention time of 945 s.

For `COCCCNC(=O)Cn1nc(C)c2nn(-c3ccc(F)cc3)c(-n3cccc3)c2c1=O`, the RP-LC retention time is 795 s.

Take `Cc1ccc(C)c(NC(=O)c2cnn3c2CCCC3)c1`: the RP-LC retention time amounted to 777 s.

With `Cc1ccc(-n2nnnc2CNS(=O)(=O)c2ccc(F)cc2F)cc1`, the RP-LC retention time was determined as 792 s.

Compound `CCSCCOC(=O)C1=C(C)NC2=C(C(=O)C(C(=O)OC)C(C)C2)C1c1cccc(OC)c1` (stereo not drawn) gave an RP-LC retention time of 968 s.

On to `COc1cc(-c2ccccc2)nc2ccc(NC(=O)COc3ccc(F)cc3)cc12`, for which the RP-LC retention time was determined as 776 s.

Compound `Cn1c(C(=O)NCc2ccccc2)cc2sc(Cl)cc21` displayed an RP-LC retention time of 1060 s.

On to `COc1ccc(CNC(=O)Cn2c(C)nc3c(sc4nc(-c5ccccc5)ccc43)c2=O)cc1`, for which the RP-LC retention time stood at 970 s.

Regarding `COc1ccc(N2CC(c3nc(-c4cc(OC)c(OC)c(OC)c4)no3)CC2=O)cc1Cl` (stereo not drawn), the RP-LC retention time was found to be 905 s.

As for `CC1CCN(CCNC(=O)C2CCCN(c3ncnc4c3nc3n4CCCCC3)C2)CC1` (stereo not drawn), the RP-LC retention time stood at 599 s.

Consider `Cc1cccc(NC(=O)Cn2nc3c(Oc4cc(C)cc(C)c4)nccn3c2=O)c1`, for which the RP-LC retention time turned out to be 934 s.

`CCC(=O)Nc1c(C)noc1/C=C\c1ccc(S(=O)(=O)Nc2ccc(S(N)(=O)=O)cc2)cc1` gave an RP-LC retention time of 695 s.

On to `Cc1cccc(NC(=O)CN2C(=O)CC(C)S(=O)(=O)c3ccccc32)c1C` (stereo not drawn), for which the RP-LC retention time was 789 s.

Turning to `CCc1ccc(NC(=O)CN2C(=O)NC3(CCCCC3)C2=O)cc1`, the RP-LC retention time is 765 s.

As for `CCOc1ccccc1-c1noc(Cn2c(=O)n(-c3ccc(F)cc3)c(=O)c3sccc32)n1`, the RP-LC retention time was found to be 956 s.

In turn, `CCOc1cccc(-c2noc(Cn3c(=O)n(-c4ccc(Cl)cc4)c(=O)c4sccc43)n2)c1` came in with an RP-LC retention time of 1130 s.

`Cc1cccc(N2C(=O)CN(Cc3ccc(F)cc3)[C@H]3CS(=O)(=O)C[C@H]32)c1` registered an RP-LC retention time of 812 s.

`Cc1ccn2cc(-c3ccc(NC(=O)c4ccc(Br)o4)cc3)nc2n1` came in with an RP-LC retention time of 647 s.

`Cc1cccc(CC(=O)N2C[C@@H]3C[C@H]2C[C@@H]3NS(=O)(=O)c2cccs2)c1`: the RP-LC retention time came out at 815 s.

The compound `COc1cc([C@@H]2c3cc4c(cc3[C@H](O)[C@@H](CO)[C@@H]2C(=O)NCc2ccccc2)OCO4)cc(OC)c1OC` yielded an RP-LC retention time of 700 s.

In turn, `CN1C(=O)c2cccn2CC1CNC(=O)Nc1ccccc1` (stereo not drawn) came in with an RP-LC retention time of 647 s.

`COCCC1CCN(C(=O)CN(C)C(=O)c2ccnn2C)CC1` had an RP-LC retention time of 586 s.

The compound `CN(C)c1ccc(-c2nc3ccc(Cl)cn3c2Nc2ccc3c(c2)OCCO3)cc1` gave an RP-LC retention time of 744 s.

`CCCN1N=C(C(=O)N2CCCCCC2)S(=O)(=O)c2ccc(C)cc21` displayed an RP-LC retention time of 991 s.

Compound `Cc1noc(C)c1C1CCCN1C(=O)NC(C)C` (stereo not drawn) yielded an RP-LC retention time of 656 s.

Take `Cc1cccn2cc(C(=O)NCc3cc(F)cc(F)c3)nc12`: the RP-LC retention time was 668 s.

As for `Cc1nc2ccn(Cc3ccco3)c(=O)c2cc1C(=O)NCCc1ccco1`, the RP-LC retention time came out at 720 s.

With `Cc1ccc(-n2ccc(=O)c(-c3nc(-c4ccc(F)c(Br)c4)no3)n2)cc1C`, the RP-LC retention time amounted to 1120 s.

Turning to `O=C(NCCc1cccs1)C1CCN(c2cnn(Cc3ccccc3)c(=O)c2)CC1`, the RP-LC retention time was 765 s.

With `CCc1onc(C)c1C1CCCN1Cc1cc(OC)c(O)c(OC)c1` (stereo not drawn), the RP-LC retention time was determined as 587 s.

Compound `Cn1nc(-c2nc(C3CC3)no2)c2c1CCN(S(=O)(=O)c1cccs1)C2` yielded an RP-LC retention time of 861 s.

In turn, `CCCN(C(=O)c1cccc(NC(=O)[C@H]2[C@@H]3C[C@@H]4[C@H]2C(=O)O[C@@H]4C3)c1)c1ccccc1F` displayed an RP-LC retention time of 853 s.

Take `CC1(C(=O)NCc2ccc3c(c2)OCO3)Oc2cccnc2NC1=O` (stereo not drawn): the RP-LC retention time is 672 s.

`O=c1c2cnc(N3CCOCC3)nc2ccn1CCc1c[nH]c2ccccc12` came in with an RP-LC retention time of 801 s.

With `CN(c1ccc(F)cc1)S(=O)(=O)N1CCCC(C(=O)NCCCN2CCc3ccccc3C2)C1` (stereo not drawn), the RP-LC retention time was 706 s.

In turn, `CC(=O)N1c2ccc(S(=O)(=O)N3CCOCC3)cc2CC1C(=O)N1CCCCC1` (stereo not drawn) registered an RP-LC retention time of 697 s.

Take `COc1ccc(C(=O)NC(c2ccccc2)c2nnc(N3CCCC3)o2)cc1` (stereo not drawn): the RP-LC retention time was 756 s.

`O=C1COc2ccccc2N1Cc1nc(-c2ccc(F)cc2)no1` came in with an RP-LC retention time of 984 s.

Turning to `CC(C)c1nnc(-c2coc(S(=O)(=O)N3CCC(N4CCCCC4)CC3)c2)o1`, the RP-LC retention time came out at 625 s.

In turn, `Cc1noc(-c2csc(C(=O)N3CCCC3)n2)n1` showed an RP-LC retention time of 688 s.

For `CCS(=O)(=O)Nc1ccc2nc(N3CCN(c4ccc(F)cc4)CC3)cc(C(=O)O)c2c1`, the RP-LC retention time worked out at 653 s.

With `COc1ccc(NC(=O)Cn2c(Nc3cc(C)cc(C)c3)nc(C)cc2=O)cc1Cl`, the RP-LC retention time was found to be 849 s.

Consider `N#Cc1cccc(C(=O)NC2CCN(c3cc(-c4ccc(F)cc4)[nH]n3)C2)c1` (stereo not drawn), for which the RP-LC retention time was determined as 712 s.

`CCOC(=O)N1CCC(NC(=O)c2cn(-c3cccc(Cl)c3)nn2)CC1` showed an RP-LC retention time of 795 s.
